Data: US9303009B2, “Migrastatins and uses thereof” (Sloan-Kettering Institute for Cancer Research, priority 2011, dated 2016)

How the values were obtained:
[1] = system: A549, H1975, and H299 cancer cells; experiment: transwell migration, panel of NSCLC lines; type: cell-based, human; details: for IC50: Homo sapiens, range over A549, H1975 and H299, read-out: IC50 values across cell lines; for toxicity and effects on cell proliferation: in the millimolar range
Method: Migration assay: Cancer cell chemotaxis was performed towards a serum gradient in a modified Boyden chamber consisting of a cell culture insert (6.4 mm diameter, 8-μm pore polyethylene tetraphtalate membrane, [Becton Dickenson]) seated in each well of a 24-well companion plate (Becton Dickinson). Briefly, cancer cells were grown as subconfluent monolayer cultures then starved for 36 hours in serum-free M5 medium. After detachment and dissociation with 5 mM EDTA, single-cell suspensions were prepared by filtration through a 35 μm mesh cell strainer (Becton Dickinson). Cells were counted and a total of 10^5 cells suspended in serum-free medium were seeded into the upper chamber of an insert, then positioned in a 24-well plate, containing medium with or without 10% serum. When used, drugs or DMSO (vehicle) were added to the medium at 0.2% in both chambers. Migration assays were carried out for 12 hours in a humidified incubator at 37° C. with 5% CO2. Cells were then fixed with 3.7% formaldehyde, permeabilized with ice cold methanol and stained with a 0.2% Crystal violet solution. Non-migratory cells on the upper side of the insert were removed with a cotton swab. For quantification, three randomly selected fields on the lower side of the insert were photographed at 4× and 20× magnification using computer-assisted microscopy, and analyzed with CellProfiler2.0 cell image analysis software). The migration in response to the test condition was calculated relative to the DMSO vehicle control.
This assay provided reproducibly robust data, allowing dose-response studies to be carried out to determine the half maximal inhibitory concentration (IC50). […] Because we noticed a mild toxicity and effects on cell proliferation in the millimolar range, experiments with CME and ME at 1 mM or more were not included for the IC50 calculation.
Lung Cancer cell lines chemotaxis was performed in cell culture inserts after serum starvation and an overnight preincubation with an incremental logarithmic scale of drug concentration (ME and CME from 10^−3 to 10^−10M). Cancer cell migration in response to a serum gradient was measured after a 12 hour-long incubation in presence of different concentrations of ME or CME in both upper and lower chamber (three wells at each dose). Cells were then fixed and stained with Crystal violet, and photographed. […] Data are expressed as the mean+/−SEM of three independent experiments. Each experiment was performed in triplicate.

A549 cells = experiment: in vitro wound-healing (scratch) assay; type: cell-based, human; details: for migration in response to a scratch wound: 100 μM
Method: This Example evaluates the anti-metastatic properties of new migrastatin analogs by assessing their ability to inhibit in vitro cancer cell migration in a wound-healing assay and their chemotaxis in a transwell migration assay. […] Similar results were obtained with a panel of human lung cancer cell lines (H1975, H647, H522, H1703, data not shown).
For the results depicted in FIG. 3, A549 cancer cells were grown as nearly confluent monolayer culture and then starved overnight in medium containing 0.5% FCS. Cell monolayers were then scratched using pipette tip, photographed, and incubated with a 6 log-scaled concentration range of ME and CME from 10^−3 to 10^−8M, with or without 2% FCS. After 12 H, areas were fixed, stained and photographed using computer-assisted microscopy. Micrographs (4× magnification) are presented, showing the A549 cancer cell migration across the scratches in absence of serum (no migration), presence of serum (migration), and in the presence of serum plus CME or ME at 100 μM or 100 nM.
Wound-Healing Assay: Cancer cells migration was measured using an “in vitro wound-healing assay” (or scratch assay) performed in a 12-well plate (Becton Dickinson). Briefly, cancer cells were seeded at a density of 5-10×10^4 cells per well, grown to near confluent monolayers in 10% serum-supplemented M5 medium and then starved overnight in a low serum medium (0.5% FCS). Perpendicular wounds were scratched through the cell monolayer using a sterile 200 μL pipette tip. The cells were then washed twice very gently using PBS and the scratched areas were photographed at 4× and 20× magnification using computer-assisted microscopy. […] Each well was photographed at 4× and 20× magnification and the pictures analyzed with CellProfiler2.0 cell image analysis software as previously described, (Carpenter A E, Jones T R, Lamprecht M R, Clarke C, Kang I H et al. (2006), Genome Biology 7(10):R100). The migration in response to the test condition was calculated as cell coverage of the original cell-free zone and related to DMSO vehicle control.

Row | SMILES | IC50 [1] [µM] | toxicity and effects on cell proliferation [1] | migration in response to a scratch wound (A549 cells) | inhibition of migration (A549 cells; submicromolar concentrations) [%]
1 | CO[C@H]1/C=C/CCCCCOC/C(C)=C\[C@@H](C)[C@@H]1OCC(=O)O [CME, Carboxymethyl migraether] | 0.5 to 5 | mild toxicity | almost completely blocked | 32
2 | CO[C@H]1/C=C/CCCCCOC/C(C)=C\[C@@H](C)[C@@H]1O [ME, migrastatin ether] | 1.5 to 8.2 | mild toxicity | almost completely blocked | –
